Source: US12268694B2, “Combination pharmaceutical agents as RSV inhibitors” (Enanta Pharmaceuticals, Inc., priority 2017, dated 2025)
Read-outs that look alike come from different tables or passages of the source.

Columns and labels:
[1] = test system: genotype A, "Long" strain RSV; assay: RSV-A assay: CPE protection in HEp-2 cells, ATPlite readout; assay type: cell-based, human respiratory syncytial virus
How it was run: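 EC50 derives from ATPlite luminescence after 5-day culture of RSV Long-infected (MOI 0.1) HEp-2 cells, seeded 8,000/well, exposed to duplicate 2-fold compound series. CC50 comes from an identical plate receiving medium instead of virus.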

HEp-2 cells = assay: Cytotoxicity in parallel to the RSV-A assay (no virus), ATPlite readout; assay type: cell-based, human
Method: Following extensive parameter testing, the final assay is run as follows: HEp-2 cells are seeded into the inner 60 wells of a 96-well plate at 8,000 cells per well in a volume of 50 μL using Growth Media (DMEM without phenol red, 1% L-Glut, 1% Penn/Strep, 1% nonessential amino acids, 10% heat-inactivated FBS). 2-fold serial dilutions of control and test compounds are added to the wells in duplicate in a total volume of 25 μL. Viral stock is then added to the wells at a multiplicity of infection (MOI) of 0.1 in a volume of 25 μL, bringing the total volume of each well to 100 μL. The MOI is calculated using the PFU/mL, or TCID50 if unavailable. Each 96-well plate has a control column of 6 wells with cells and virus but no compound (negative control, max CPE), a column with cells but no compound or virus (positive control, minimum CPE), and a column with no cells or virus or compound (background plate/reagent control). The control wells with cells but no virus are given an additional 25 μL of growth media containing an equal quantity of sucrose as those wells receiving the viral stock in order to keep consistent in media and volume conditions. The outer wells of the plate are filled with 125 μL of moat media (DMEM, 1% Penn/Strep) to act as a thermal and evaporative moat around the test wells. Following a 5-day incubation period, the plates are read using ATPlite (50 μL added per well), which quantifies the amount of ATP (a measure of cell health) present in each well. Assay plates are read using the Envision luminometer. In parallel, cytotoxicity is examined on an additional 96-well plate treated in an identical manner, but substituting the 25 μL of viral stock for 25 μL of growth media. […] EC50 ranges are as follows: A <0.4 μM; B 0.4-0.8 μM; C >0.8 μM and CC50 ranges are as follows: A >50 μM; B 10-50 μM; C <10 μM.

[2] = human respiratory syncytial virus, HEp-2, read-out: Human RSV-A (“Long” strain) EC50

SMILES | EC50 [1, 2] [nM] | CC50 (HEp-2 cells) [µM] | EC50 ([1]; HEp-2 cells, RSV-A Long strain, ATPlite readout, read-out: Human RSV-A (“Long” strain) EC50) [nM]
O=C1Nc2ccccc2C(c2ccccc2)=NC1Nc1nnc(-c2cccnn2)o1 (centres unmarked) [Example 62] | > 800 | > 50 | –
O=C1Nc2ccccc2C(c2ccccc2)=N[C@H]1Nc1nnc(-c2ccc(F)cc2)o1 [Example 7b] | > 800 | 10 to 50 | –
O=C1Nc2ccccc2C(c2ccccc2)=NC1Nc1nnc(-c2ccc3ccccc3c2)o1 (centres unmarked) [Example 16] | 400 to 800 | > 50 | –
O=C1Nc2ccccc2C(c2ccccc2)=NC1Nc1nnc(-c2ncccn2)o1 (centres unmarked) [Example 59] | > 800 | > 50 | –
O=C1Nc2ccccc2C(c2ccccc2)=NC1Nc1nnc(-c2ccc3nc[nH]c3c2)o1 (centres unmarked) [Example 41] | > 800 | > 50 | –
COc1cccc(-c2nnc(NC3N=C(c4ccccc4)c4ccccc4NC3=O)o2)n1 (centres unmarked) [Example 52] | < 400 | > 50 | –
N#Cc1ccc(-c2nnc(NC3N=C(c4ccccc4)c4ccccc4NC3=O)o2)cc1 (centres unmarked) [Example 12] | 400 to 800 | > 50 | –
CS(=O)(=O)c1ccc(-c2nnc(NC3N=C(c4ccccc4)c4ccccc4NC3=O)o2)cc1 (centres unmarked) [Example 27] | > 800 | > 50 | –
O=C1Nc2ccccc2C(c2ccccc2)=NC1Nc1nnc(-c2ccncn2)o1 (centres unmarked) [Example 63] | > 800 | > 50 | –
O=C1Nc2ccccc2C(c2ccccc2)=NC1Nc1nnc(-c2ccc(=O)[nH]c2)o1 (centres unmarked) [Example 39] | > 800 | > 50 | –
O=C1Nc2ccccc2C(c2ccccc2)=NC1Nc1cc(-c2ccccc2)ncn1 (centres unmarked) [Example 92] | > 800 | 10 to 50 | –
NS(=O)(=O)c1ccc(-c2nnc(NC3N=C(c4ccccc4)c4ccccc4NC3=O)o2)cc1 (centres unmarked) [Example 31] | 400 to 800 | > 50 | –
O=C1Nc2ccccc2C(c2ccccc2)=NC1Nc1nnc(-c2cccc(C(F)(F)F)c2)o1 (centres unmarked) [Example 29] | > 800 | > 50 | –
O=C1Nc2ccccc2C(c2ccccc2)=NC1Nc1nnc(-c2ccccc2)[nH]1 (centres unmarked) [Example 86] | > 800 | > 50 | –
O=C1Nc2ccccc2C(c2ccccc2)=N[C@H]1Nc1nnc(-c2ccco2)o1 [Example 10b] | > 800 | < 10 | –
O=C1Nc2ccccc2C(c2ccccc2)=NC1Nc1nc(-c2ccccc2)ns1 (centres unmarked) [Example 87] | > 800 | 10 to 50 | –
O=C1Nc2ccccc2C(c2ccccc2)=NC1Nc1nnc(-c2ccc(F)cc2F)o1 (centres unmarked) [Example 50] | > 800 | > 50 | –
O=C1Nc2ccccc2C(c2ccccc2)=NC1Nc1nnc(-c2ccccc2)o1 (centres unmarked) [Example 2] | > 800 | > 50 | –
Cc1cccc(-c2nnc(NC3N=C(c4ccccc4)c4ccccc4NC3=O)o2)n1 (centres unmarked) [Example 26] | > 800 | > 50 | –
O=C1Nc2ccccc2C(c2ccccc2)=NC1Nc1nnc(-c2cnccn2)o1 (centres unmarked) [Example 58] | > 800 | > 50 | –
O=C1Nc2ccccc2C(c2ccccc2)=NC1Nc1nnc(-c2ccccn2)o1 (centres unmarked) [Example 11] | 400 to 800 | > 50 | –
O=C1Nc2ccccc2C(c2ccccc2)=NC1Nc1ncc(-c2ccccc2)o1 (centres unmarked) [Example 84] | > 800 | 10 to 50 | –
O=C1Nc2ccccc2C(c2ccccc2)=NC1Nc1nnc(-c2cscn2)o1 (centres unmarked) [Example 77] | 400 to 800 | > 50 | –
O=C1Nc2ccccc2C(c2ccccc2)=NC1Nc1nc2ccc(Cl)cc2o1 (centres unmarked) [Example 99] | > 800 | 10 to 50 | –
O=C1Nc2ccccc2C(c2ccccc2)=NC1Nc1ccnc(-c2ccccc2)n1 (centres unmarked) [Example 96] | > 800 | 10 to 50 | –
O=C1Nc2ccccc2C(c2ccccc2)=NC1Nc1nc2ccccc2s1 (centres unmarked) [Example 101] | > 800 | 10 to 50 | –
CN[C@H](c1ccccc1)c1nnc(NC2N=C(c3ccccc3)c3ccccc3NC2=O)o1 (some centres unmarked) [Example 238] | > 800 | – | –
O=C1Nc2ccccc2C(c2ccccc2)=NC1Nc1nnc(C2CC(F)(F)C2)o1 (centres unmarked) [Example 214] | > 800 | – | –
O=C1Nc2c(F)cccc2C(c2ccccc2)=N[C@@H]1Nc1nnc(-c2ncc(C(F)(F)F)cc2N2CCOCC2)o1 [Example 360] | – | – | < 400
COCCNc1ccc(-c2nnc(NC3N=C(c4ccccc4)c4ccccc4NC3=O)o2)cc1 (centres unmarked) [Example 117] | > 800 | – | –
